Measurements taken from patent US6420330B1, “Use of quaternary carboxylic acid alkanolamine ester salts as microbicide agents” (Cognis Deutschland GmbH, priority 1997, dated 2002).

Legend:
Assay in all cases: DGHM suspension test, microbicidal activity
Format in all cases: cell-based
[1] = test system: Candida albicans ATCC 10231
Procedure: (§1) The microbicidal activity of the quanterary carboxylic acid alkanolamine ester salts used in accordance with the invention was tested against the following selected test germs:
(§2) The effectiveness of the compound to be tested was determined by the suspension test in accordance with the guidelines of the Deutsche Gesellschaft for Hygiene and Mikrobiologie (DGHM). Test solutions containing quatemary carboxylic acid alkanolamine ester salts in the quantities shown in the Tables of 50, 100, 200, 400 and 800 mg/l were prepared using water with a hardness of 17° dH and optionally isopropanol.
(§3) At room temperatures, quantities of 0.1 ml test germ suspension were pipetted into test tubes containing 10 ml of the test solutions described above and mixed. After various contact times of 5, 15, 30 and 60 minutes, 1 ml of material was taken from the test tubes by pipette and transferred to 9 ml inactivator solution (inactivators: 3.0% Tween, 0.3% lecithin, 0.1% histidine). After in activation for at least 5 and at most 30 minutes, the living germ count was determined by plating out onto casein peptone-soybean flour peptone (CaSo)-agar plates. Using a spiral plater, the inactivating mixture was directly plated out onto CaSo-agar. The samples were incubated for 24 to 72 hours at 37° C. and macroscopically evaluated for growth. The destruction time or the residual germ count was determined in this way. The germ count of an unchallenged water control is related to the germ count of the inactivated test solution taking the dilution into account. The higher the value, the better the microbicidal effect. The symbol < means that the logarithmic reductuon factor is below the indicated value or, in the case of the symbol >, above the indicated value. The abbreviation CU stands for “concentration used”.

[2] = test system: Pseudomonas aeruginosa ATCC 15442
Procedure: as §1, §2, §3

[3] = test system: Staphylococcus aureus ATCC 6538
Procedure: as §1, §2, §3

[4] = CU 50 mg/l, contact time 5 mins.
[5] = CU 50 mg/l, contact time 15 mins.
[6] = CU 50 mg/l, contact time 30 mins.
[7] = CU 50 mg/l, contact time 60 mins.
[8] = CU 100 mg/l, contact time 5 mins.
[9] = CU 100 mg/l, contact time 15 mins.
[10] = CU 100 mg/l, contact time 30 mins.
[11] = CU 100 mg/l, contact time 60 mins.
[12] = CU 200 mg/l, contact time 5 mins.
[13] = CU 200 mg/l, contact time 15 mins.
[14] = CU 200 mg/l, contact time 30 mins.
[15] = CU 200 mg/l, contact time 60 mins.
[16] = CU 400 mg/l, contact time 5 mins.
[17] = CU 400 mg/l, contact time 15 mins.
[18] = CU 400 mg/l, contact time 30 mins.
[19] = CU 400 mg/l, contact time 60 mins.
[20] = CU 800 mg/l, contact time 5 mins.
[21] = CU 800 mg/l, contact time 15 mins.
[22] = CU 800 mg/l, contact time 30 mins.
[23] = CU 800 mg/l, contact time 60 mins.

In the case of `CCCCCCCC(=O)OCC[N+](C)(CCO)CCOC(=O)CCCCCCC.COS(=O)(=O)[O-]` [Example 7, Methyl triethanolammonium dicaprylic acid ester methosulfate], the logarithmic reduction factor [1, 4] is reported as greater than 4.31, the logarithmic reduction factor [1, 5] is reported as greater than 4.18 and the logarithmic reduction factor [1, 6] is reported as greater than 4.16. For the same compound, the logarithmic reduction factor [1, 7] was greater than 4.27, the logarithmic reduction factor [1, 8] was greater than 4.31 and the logarithmic reduction factor [1, 9] was greater than 4.18. For the same compound, the logarithmic reduction factor [1, 10] was greater than 4.16, the logarithmic reduction factor [1, 11] was greater than 4.27 and the logarithmic reduction factor [1, 12] was greater than 4.31. The logarithmic reduction factor [1, 13] was greater than 4.18, the logarithmic reduction factor [1, 14] was greater than 4.16 and the logarithmic reduction factor [1, 15] was greater than 4.27. For the same compound, the logarithmic reduction factor [1, 16] was greater than 4.31, the logarithmic reduction factor [1, 17] was greater than 4.18 and the logarithmic reduction factor [1, 18] was greater than 4.16. For the same compound, the logarithmic reduction factor [1, 19] was greater than 4.27, the logarithmic reduction factor [1, 20] was greater than 4.31 and the logarithmic reduction factor [1, 21] was greater than 4.18. The logarithmic reduction factor [1, 22] was greater than 4.16, the logarithmic reduction factor [1, 23] was greater than 4.27 and the logarithmic reduction factor [2, 4] was less than 1.77. It also gave a logarithmic reduction factor [2, 5] of less than 1.72, a logarithmic reduction factor [2, 6] of less than 1.76 and a logarithmic reduction factor [2, 7] of 3.65. The logarithmic reduction factor [2, 8] was 3.64, the logarithmic reduction factor [2, 9] was greater than 5.72 and the logarithmic reduction factor [2, 10] was greater than 5.76. It also gave a logarithmic reduction factor [2, 11] greater than 5.86, a logarithmic reduction factor [2, 12] of 4.59 and a logarithmic reduction factor [2, 13] greater than 5.72. The logarithmic reduction factor [2, 14] was 5.76, the logarithmic reduction factor [2, 15] was greater than 5.86 and the logarithmic reduction factor [2, 16] was 5.32. For the same compound, the logarithmic reduction factor [2, 17] was greater than 5.72, the logarithmic reduction factor [2, 18] was greater than 5.76 and the logarithmic reduction factor [2, 19] was greater than 5.86. The logarithmic reduction factor [2, 20] was greater than 5.77, the logarithmic reduction factor [2, 21] was greater than 5.72 and the logarithmic reduction factor [2, 22] was greater than 5.76. It also gave a logarithmic reduction factor [2, 23] greater than 5.86, a logarithmic reduction factor [3, 4] greater than 5.75 and a logarithmic reduction factor [3, 5] greater than 5.53. It also gave a logarithmic reduction factor [3, 6] greater than 5.42, a logarithmic reduction factor [3, 7] greater than 5.69 and a logarithmic reduction factor [3, 8] greater than 5.75. It also gave a logarithmic reduction factor [3, 9] greater than 5.53, a logarithmic reduction factor [3, 10] greater than 5.42 and a logarithmic reduction factor [3, 11] greater than 5.69. The logarithmic reduction factor [3, 12] was greater than 5.75, the logarithmic reduction factor [3, 13] was greater than 5.53 and the logarithmic reduction factor [3, 14] was greater than 5.42. The logarithmic reduction factor [3, 15] was greater than 5.69, the logarithmic reduction factor [3, 16] was greater than 5.75 and the logarithmic reduction factor [3, 17] was greater than 5.53. For the same compound, the logarithmic reduction factor [3, 18] was greater than 5.42, the logarithmic reduction factor [3, 19] was greater than 5.69 and the logarithmic reduction factor [3, 20] was greater than 5.75. The logarithmic reduction factor [3, 21] was greater than 5.53, the logarithmic reduction factor [3, 22] was greater than 5.42 and the logarithmic reduction factor [3, 23] was greater than 5.69.

`CCCCCCCCCC(=O)OCC[N+](C)(CCO)CCOC(=O)CCCCCCCCC.COS(=O)(=O)[O-]` [Example 6, methyl triethanolammonium dicapric acid ester methosulfate] was tested, and the logarithmic reduction factor [1, 4] was less than 0.87, the logarithmic reduction factor [1, 5] was 1.64 and the logarithmic reduction factor [1, 6] was 1.93. For the same compound, the logarithmic reduction factor [1, 7] was 2.62, the logarithmic reduction factor [1, 8] was 1.27 and the logarithmic reduction factor [1, 9] was 3.03. The logarithmic reduction factor [1, 10] was 3.75, the logarithmic reduction factor [1, 11] was 4.15 and the logarithmic reduction factor [1, 12] was 1.24. For the same compound, the logarithmic reduction factor [1, 13] was 3.66, the logarithmic reduction factor [1, 14] was greater than 4.78 and the logarithmic reduction factor [1, 15] was greater than 4.67. It also gave a logarithmic reduction factor [1, 16] of 1.38, a logarithmic reduction factor [1, 17] of 3.51 and a logarithmic reduction factor [1, 18] greater than 4.78. It also gave a logarithmic reduction factor [1, 19] greater than 4.67, a logarithmic reduction factor [1, 20] of 1.33 and a logarithmic reduction factor [1, 21] greater than 4.87. For the same compound, the logarithmic reduction factor [1, 22] was greater than 4.78, the logarithmic reduction factor [1, 23] was greater than 4.67 and the logarithmic reduction factor [2, 4] was less than 1.85. The logarithmic reduction factor [2, 5] was less than 1.79, the logarithmic reduction factor [2, 6] was less than 1.71 and the logarithmic reduction factor [2, 7] was less than 1.81. The logarithmic reduction factor [2, 8] was less than 1.85, the logarithmic reduction factor [2, 9] was less than 1.79 and the logarithmic reduction factor [2, 10] was less than 1.71. For the same compound, the logarithmic reduction factor [2, 11] was 3.19, the logarithmic reduction factor [2, 12] was less than 1.85 and the logarithmic reduction factor [2, 13] was less than 1.79. For the same compound, the logarithmic reduction factor [2, 14] was 3.35, the logarithmic reduction factor [2, 15] was 3.89 and the logarithmic reduction factor [2, 16] was less than 1.85. The logarithmic reduction factor [2, 17] was less than 1.79, the logarithmic reduction factor [2, 18] was 4.18 and the logarithmic reduction factor [2, 19] was greater than 5.81. For the same compound, the logarithmic reduction factor [2, 20] was less than 1.85, the logarithmic reduction factor [2, 21] was 4.14 and the logarithmic reduction factor [2, 22] was 4.76. The logarithmic reduction factor [2, 23] was greater than 5.81, the logarithmic reduction factor [3, 4] was 4.12 and the logarithmic reduction factor [3, 5] was greater than 5.73. It also gave a logarithmic reduction factor [3, 6] greater than 5.75, a logarithmic reduction factor [3, 7] greater than 5.86 and a logarithmic reduction factor [3, 8] of 4.58. For the same compound, the logarithmic reduction factor [3, 9] was greater than 5.73, the logarithmic reduction factor [3, 10] was greater than 5.75 and the logarithmic reduction factor [3, 11] was greater than 5.86. The logarithmic reduction factor [3, 12] was 4.55, the logarithmic reduction factor [3, 13] was greater than 5.73 and the logarithmic reduction factor [3, 14] was greater than 5.75. It also gave a logarithmic reduction factor [3, 15] greater than 5.86, a logarithmic reduction factor [3, 16] of 4.48 and a logarithmic reduction factor [3, 17] greater than 5.73. The logarithmic reduction factor [3, 18] was greater than 5.75, the logarithmic reduction factor [3, 19] was greater than 5.86 and the logarithmic reduction factor [3, 20] was 5.44. For the same compound, the logarithmic reduction factor [3, 21] was greater than 5.73, the logarithmic reduction factor [3, 22] was greater than 5.75 and the logarithmic reduction factor [3, 23] was greater than 5.86.

For `CCCCCCCC(=O)OCC[N+](C)(CCOC(=O)CCCCCCC)CCOC(=O)CCCCCCC.COS(=O)(=O)[O-]` [Example 2, methyl triethanolammonium tricaprylic acid ester methosulfate], the logarithmic reduction factor [1, 4] was 3.44, the logarithmic reduction factor [1, 5] was greater than 4.71 and the logarithmic reduction factor [1, 6] was greater than 4.82. The logarithmic reduction factor [1, 7] was greater than 4.68, the logarithmic reduction factor [1, 8] was greater than 4.73 and the logarithmic reduction factor [1, 9] was greater than 4.71. It also gave a logarithmic reduction factor [1, 10] greater than 4.82, a logarithmic reduction factor [1, 11] greater than 4.68 and a logarithmic reduction factor [1, 12] greater than 4.73. It also gave a logarithmic reduction factor [1, 13] greater than 4.71, a logarithmic reduction factor [1, 14] greater than 4.82 and a logarithmic reduction factor [1, 15] greater than 4.68. For the same compound, the logarithmic reduction factor [1, 16] was greater than 4.73, the logarithmic reduction factor [1, 17] was greater than 4.71 and the logarithmic reduction factor [1, 18] was greater than 4.82. It also gave a logarithmic reduction factor [1, 19] greater than 4.68, a logarithmic reduction factor [1, 20] greater than 4.73 and a logarithmic reduction factor [1, 21] greater than 4.71. The logarithmic reduction factor [1, 22] was less than 4.82, the logarithmic reduction factor [1, 23] was greater than 4.68 and the logarithmic reduction factor [2, 4] was less than 1.38. For the same compound, the logarithmic reduction factor [2, 5] was less than 1.70, the logarithmic reduction factor [2, 6] was 3.31 and the logarithmic reduction factor [2, 7] was 3.98. It also gave a logarithmic reduction factor [2, 8] of less than 1.38, a logarithmic reduction factor [2, 9] of 3.25 and a logarithmic reduction factor [2, 10] of 3.75. It also gave a logarithmic reduction factor [2, 11] of 4.49, a logarithmic reduction factor [2, 12] of 1.38 and a logarithmic reduction factor [2, 13] of 3.95. For the same compound, the logarithmic reduction factor [2, 14] was 4.40, the logarithmic reduction factor [2, 15] was greater than 5.59 and the logarithmic reduction factor [2, 16] was 4.08. For the same compound, the logarithmic reduction factor [2, 17] was greater than 5.70, the logarithmic reduction factor [2, 18] was greater than 5.68 and the logarithmic reduction factor [2, 19] was greater than 5.59. It also gave a logarithmic reduction factor [2, 20] of 4.42, a logarithmic reduction factor [2, 21] greater than 5.70 and a logarithmic reduction factor [2, 22] greater than 5.68. It also gave a logarithmic reduction factor [2, 23] greater than 5.59, a logarithmic reduction factor [3, 4] of 3.21 and a logarithmic reduction factor [3, 5] greater than 5.38. It also gave a logarithmic reduction factor [3, 6] greater than 5.50, a logarithmic reduction factor [3, 7] greater than 5.41 and a logarithmic reduction factor [3, 8] of 3.54. The logarithmic reduction factor [3, 9] was greater than 5.38, the logarithmic reduction factor [3, 10] was greater than 5.50 and the logarithmic reduction factor [3, 11] was greater than 5.41. For the same compound, the logarithmic reduction factor [3, 12] was 4.32, the logarithmic reduction factor [3, 13] was greater than 5.38 and the logarithmic reduction factor [3, 14] was greater than 5.50. The logarithmic reduction factor [3, 15] was greater than 5.41, the logarithmic reduction factor [3, 16] was greater than 5.56 and the logarithmic reduction factor [3, 17] was greater than 5.38. It also gave a logarithmic reduction factor [3, 18] greater than 5.50, a logarithmic reduction factor [3, 19] greater than 5.41 and a logarithmic reduction factor [3, 20] greater than 5.56. The logarithmic reduction factor [3, 21] was greater than 5.38, the logarithmic reduction factor [3, 22] was greater than 5.50 and the logarithmic reduction factor [3, 23] was greater than 5.41.
